Laboratory results as given in ChEMBL document CHEMBL1201862, “PubChem BioAssay data set” (2004).
Activity calls are given as the source filed them.

What was measured:
[1] = target: T1, Cytochrome P450 1A2 (Homo sapiens, UniProt P05177);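 note: PubChem cytochrome P450 panel assay, CYP1A2 panel member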
T1 sequence (P05177 whole entry): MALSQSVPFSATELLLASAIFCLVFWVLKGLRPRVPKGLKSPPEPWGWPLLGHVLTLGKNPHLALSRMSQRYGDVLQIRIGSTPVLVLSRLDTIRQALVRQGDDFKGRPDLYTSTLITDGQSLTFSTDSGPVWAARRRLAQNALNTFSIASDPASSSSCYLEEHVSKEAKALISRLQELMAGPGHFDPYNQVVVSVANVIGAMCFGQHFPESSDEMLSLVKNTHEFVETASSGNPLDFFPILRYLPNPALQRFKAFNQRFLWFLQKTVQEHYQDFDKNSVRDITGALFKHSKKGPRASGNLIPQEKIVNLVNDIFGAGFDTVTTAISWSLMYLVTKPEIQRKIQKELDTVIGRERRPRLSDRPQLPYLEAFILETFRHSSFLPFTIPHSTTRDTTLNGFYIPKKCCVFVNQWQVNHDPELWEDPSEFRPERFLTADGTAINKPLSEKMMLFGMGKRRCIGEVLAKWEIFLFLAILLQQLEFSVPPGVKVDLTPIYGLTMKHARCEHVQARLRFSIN

[2] = cytotoxicity toward NIH3T3 fibroblasts, dose response, counter-screen, cell-based, ATP luminescence, mouse fibroblasts (AID 2010); assay type: functional;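 note: cells exposed to compound for about 90 hours before reading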
[3] = inhibitors of intracellular T. cruzi replication, confirmation, NIH3T3 host cells, beta-gal luminescence (AID 2044); assay type: functional, cell-based;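 note: intracellular parasites grown in NIH/3T3 mouse fibroblasts as host cells; luminescent beta-galactosidase reporter signal from transgenic T. cruzi replicating inside host cells; inhibitors lower the luminescence signal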
[4] = test system: Streptococcus; experiment: Group A Streptococcus viability loss, dose response, counter-screen for streptokinase expression inhibitor project, luminescence, BacTiterGlo (AID 1915); assay type: functional, organism-based;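 note: potency for reduction of bacterial viability or growth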
[5] = target: T2, Streptokinase A (Streptococcus pyogenes serotype M1, UniProt P10520); experiment: S. pyogenes streptokinase expression inhibitors, potency, dose response, plasminogen activation absorbance, OD405 (AID 1914); assay type: functional, Streptococcus pyogenes M1 GAS;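 note: secreted streptokinase activity via plasminogen activation per viability signal from cell pellet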
T2 sequence (P10520 whole entry): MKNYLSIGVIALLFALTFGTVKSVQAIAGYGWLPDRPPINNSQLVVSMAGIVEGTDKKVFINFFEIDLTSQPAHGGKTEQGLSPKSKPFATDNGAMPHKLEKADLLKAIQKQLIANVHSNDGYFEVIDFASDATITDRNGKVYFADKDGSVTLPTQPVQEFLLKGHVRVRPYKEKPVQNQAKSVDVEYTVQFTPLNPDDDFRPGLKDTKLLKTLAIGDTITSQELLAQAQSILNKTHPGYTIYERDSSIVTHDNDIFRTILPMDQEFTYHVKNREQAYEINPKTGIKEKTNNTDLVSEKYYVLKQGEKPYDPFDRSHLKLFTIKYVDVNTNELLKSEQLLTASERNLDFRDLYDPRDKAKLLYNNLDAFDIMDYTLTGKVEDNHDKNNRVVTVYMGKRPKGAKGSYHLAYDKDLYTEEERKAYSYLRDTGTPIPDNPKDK

[6] = test system: Streptococcus sp. 'group A'; experiment: growth inhibition of control SK(-) GAS strain, dose response, counter-screen for streptokinase expression inhibitor project, luminescence, kanamycin, BacTiterGlo, confirmation (AID 1900); assay type: functional, organism-based
[7] = test system: H4; experiment: Luminescence Cell-Based Dose Response HTS to Identify Activators of 5'UTR Stem-Loop Driven Prion Protein mRNA Translation in H4 Neuroglioblastoma Cells. [Related pubchem assays: 1829 (Project Summary), 1814 (Primary HTS)]; assay type: functional; conditions: Homo sapiens
[8] = Luminescence Cell-Based Dose Response HTS to Identify Activators of Luciferase Translation or Activity in H4 […] Cells. [Related pubchem assays: 1829 (Project Summary), 1814 (Primary HTS)]; assay type: functional
[9] = target: Cytochrome P450 2C19 (Homo sapiens, UniProt P33261); experiment: Cytochrome panel assay with activity outcomes. Panel member name: p450-cyp2c19 Compounds with AC50 equal or less than 10 uM are considered active; assay type: functional
Sequence of Cytochrome P450 2C19 (P33261 whole entry): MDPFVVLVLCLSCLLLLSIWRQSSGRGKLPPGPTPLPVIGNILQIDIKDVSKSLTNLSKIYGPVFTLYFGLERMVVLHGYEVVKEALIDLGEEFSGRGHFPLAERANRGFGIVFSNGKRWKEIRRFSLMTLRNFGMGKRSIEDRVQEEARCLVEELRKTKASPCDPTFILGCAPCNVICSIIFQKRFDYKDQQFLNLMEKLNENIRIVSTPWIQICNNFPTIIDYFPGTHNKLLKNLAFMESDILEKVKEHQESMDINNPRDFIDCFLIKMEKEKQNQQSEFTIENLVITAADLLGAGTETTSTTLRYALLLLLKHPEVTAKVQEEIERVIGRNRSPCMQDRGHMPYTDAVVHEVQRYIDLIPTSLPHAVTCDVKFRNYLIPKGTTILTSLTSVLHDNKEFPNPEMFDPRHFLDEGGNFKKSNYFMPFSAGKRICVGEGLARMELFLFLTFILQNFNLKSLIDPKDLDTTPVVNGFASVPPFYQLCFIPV

NCCc1ccc(S(=O)(=O)F)cc1
AC50 [1]: 15.8 µM (inconclusive)

Cc1ccc(Nc2ccc([N+](=O)[O-])nc2[N+](=O)[O-])cc1
EC50 [2]: > 60 µM (not active) | EC50 [3]: 1.57 µM (active)

Cc1ccc(S(=O)(=O)N(C(=N)N)c2nc(N(C)C)nc(N(C)C)n2)cc1
EC50 [2]: > 60 µM (not active) | EC50 [3]: 0.879 µM (active)

CCOc1ccc(CN2CCN(Cc3cccc4nonc34)CC2CCO)cc1 (configuration not stated)
EC50 [2]: > 60 µM (not active) | EC50 [3]: 0.559 µM (active)

CCCCCCn1c(=O)c(C(=O)Nc2c(C)n(C)n(-c3ccccc3)c2=O)c(O)c2ccccc21
EC50 [4]: 8.06 µM (active) | EC50 [5]: 3.63 µM (active) | EC50 [6]: 3.09 µM (active)

Oc1ccc(-c2nc3c4c(ncn3n2)-c2ccccc2CC42CCCC2)cc1
EC50 [4]: 0.936 µM (active) | EC50 [6]: 0.909 µM (active)

CCSc1n[nH]c2c3cccc(C)c3nc-2n1
EC50 [7]: > 120 µM (not active) | EC50 [8]: 2.08 µM (active)

CCN1CCC2(CC1)NC(CO)(CO)CO2
AC50 [9]: inconclusive

CCN=C(S)NNC(=O)c1cc(C)on1
AC50 ([9]; read-out: AC50): 7.94 µM (inconclusive)

Cc1c(Cl)cccc1NC(=O)COC(=O)c1c2c(nc3ccccc13)CCN(Cc1ccccc1)C2
EC50 [2]: > 60 µM (not active) | EC50 [3]: 1.63 µM (active)

CC(C)(C)CNC(CO)C12CC3CC(CC(C3)C1)C2 (configuration not stated)
AC50 ([9]; read-out: AC50): 15.8 µM (inconclusive)

COc1ccc(CCNC(=O)CCCCCN2C(=O)c3ccccc3C2=O)cc1
AC50 [1]: 25.1 µM (inconclusive)

c1ccc(Nc2ccc3c4c(cccc24)CC3)cc1
EC50 [2]: 59.5 µM (active) | EC50 [3]: 0.97 µM (active)

CCOC(=O)c1ccc(OC(=O)CCCCCNC(=N)N)cc1
AC50 [1]: 12.6 µM (inconclusive)

COc1ccc(-c2cc3n(n2)CCc2nc4ccccc4n2-3)cc1
EC50 [7]: 12.5 µM (active) | EC50 [8]: 10.5 µM (active)

O=C(NCc1ccccc1)C(=O)NCC1OCCN1S(=O)(=O)c1ccc([N+](=O)[O-])cc1 (configuration not stated)
EC50 [2]: > 60 µM (not active) | EC50 [3]: 0.782 µM (active)

CCCCCCOC(=O)C(C#N)c1nc2ccccc2nc1N1CCN(C)CC1 (configuration not stated)
EC50 [2]: 11.3 µM (active) | EC50 [3]: 2.57 µM (active)

COC(=O)[C@@]1(Cc2ccc(F)cc2)[C@@H]2[C@@H](CC(=O)[C@H]2CC(=O)C(=O)N(C)C)CN1C(=O)c1ccccc1
AC50 ([9]; read-out: AC50): 39.8 µM (inconclusive)

COc1ccccc1OCCCn1c(C)c(C#N)c2ccccc21
EC50 [4]: > 150 µM (not active) | EC50 [5]: 23.2 µM (active) | EC50 [6]: 21.2 µM (active)

Cc1cccc(N2CCN(C(=O)C34CC5CC(CC(C5)C3)C4)CC2)c1C
EC50 [4]: 11.3 µM (active) | EC50 [5]: 15.2 µM (active) | EC50 [6]: 3.81 µM (active)

COC(=O)C1=CN(c2ccc(OC)cc2)C=C(C(=O)OC)C1c1ccc([N+](=O)[O-])cc1
EC50 [2]: > 30 µM (not active) | EC50 [3]: 1.94 µM (active)

Cn1c(O)c(C(c2ccccn2)c2c(O)n(C)c(=S)[nH]c2=O)c(=O)[nH]c1=S
AC50 ([9]; read-out: AC50): 0.316 µM (inconclusive)

Cc1ccc(C)c(C(=O)COC(=O)c2cc(Cl)nc3ccccc23)c1
EC50 [4]: > 150 µM (not active) | EC50 [5]: 19.4 µM (active) | EC50 [6]: 60.6 µM (active)

O=C(NCCCN1CCCC1)C1CCN(C(=O)c2cc3sccc3n2Cc2ccc(F)cc2)CC1
EC50 [2]: > 60 µM (not active) | EC50 [3]: 1.32 µM (active)

Cc1cc(NC(=O)/C=C/c2ccccc2Cl)no1
EC50 [7]: 9.55 µM (active) | EC50 [8]: 118 µM (active)

CC1c2ccccc2SC(CCCN(C)C)c2ccccc21 (configuration not stated)
EC50 [2]: > 60 µM (not active) | EC50 [3]: 0.639 µM (active)

CCn1ccc(C(=O)NC2C(=O)N3C(C(=O)O)=C(C)CSC23)n1 (configuration not stated)
AC50 ([9]; read-out: AC50): 14.1 µM (inconclusive)

N=C(Cc1ccc(Cl)cc1)NOC(=O)c1cccc2ccccc12
EC50 [2]: > 60 µM (not active) | EC50 [3]: 0.81 µM (active)

COc1ccc(-c2nnc(NC(=O)C3CCCN3S(=O)(=O)c3cccs3)o2)cc1 (configuration not stated)
EC50 [4]: > 150 µM (not active) | EC50 [5]: > 150 µM (not active) | EC50 [6]: > 150 µM (not active)

Cc1c(C(=O)Nc2cccc([N+](=O)[O-])c2)csc1-c1ccccc1
EC50 [2]: > 60 µM (not active) | EC50 [3]: 1.43 µM (active)

CN1C2C=C3C(C#N)=C(N)C(C#N)(C#N)[C@H](c4c(F)cccc4F)[C@H]3C1CC2 (some centres not stated)
AC50 ([9]; read-out: AC50): 22.4 µM (inconclusive)

COc1ccc(-c2cnnn2-c2ccc(NC(=O)c3ccco3)cc2)cc1OC
AC50 [1]: 14.1 µM (inconclusive)

Cc1cc(=O)c(C(=O)O)cn1Nc1ccc(Cl)cc1
EC50 [4]: 14.5 µM (active) | EC50 [5]: > 150 µM (not active) | EC50 [6]: 3.15 µM (active)

CC1(C)Cc2c(sc3nc(-c4cc5ccccc5o4)n(N)c(=O)c23)CO1
EC50 [7]: > 120 µM (inconclusive) | EC50 [8]: 0.817 µM (active)

Cc1ccc(-c2[nH]nc(N)c2N=Nc2ccccc2C)cc1
EC50 [4]: 8.03 µM (active) | EC50 [5]: > 150 µM (not active) | EC50 [6]: 2.63 µM (active)

CS(=O)(=O)c1ccc(/C=N\NC(N)=S)cc1
AC50 [1]: 5.01 µM (inconclusive)

CC1CCCN(C(=O)C(=O)c2cn(CC(=O)N3CCCCCC3)c3ccccc23)C1 (configuration not stated)
EC50 [2]: > 60 µM (not active) | EC50 [3]: 0.765 µM (active)

CC(C)CN=C(S)N1CCN(C)CC1
AC50 ([9]; read-out: AC50): 39.8 µM (inconclusive)

COc1cc(/C=C/C(=O)OC2CC3CCC2(C)C3(C)C)ccc1O (configuration not stated)
EC50 [4]: 6.7 µM (active) | EC50 [5]: 7.32 µM (active) | EC50 [6]: 6.88 µM (active)

COC(=O)[C@@H]1CC[C@H](C)[C@@H](c2ccc(C)cc2)N1C(=O)c1ccc(/C=N\OC[C@@H](C)[C@H](OCc2ccccc2)C(C)C)cc1
AC50 ([9]; read-out: AC50): 6.31 µM (inconclusive)

O=C(Nc1cccc(Cl)c1N1CCCC1)c1ccc(Br)o1
EC50 [4]: 6.85 µM (active) | EC50 [5]: > 150 µM (not active) | EC50 [6]: 4.12 µM (active)

O=c1c2cc(N3CCOCC3)ccc2[nH]c(=S)n1CCc1ccccc1
EC50 [4]: 12.3 µM (active) | EC50 [5]: > 150 µM (not active) | EC50 [6]: 0.447 µM (active)

COc1ccc(NC(=O)C2CC(=O)NC3=C2C(=O)CC(C)(C)C3)cc1 (configuration not stated)
AC50 ([9]; read-out: AC50): 39.8 µM (inconclusive)

Cc1cc(C)c(S(C)(=O)=O)c(Oc2ccc(F)cc2)n1
AC50 ([9]; read-out: AC50): 20 µM (inconclusive)

Cc1cc2c(O)nc(N)nc2nc1C
AC50 [1]: 6.31 µM (inconclusive)

O=C(CCC(=O)Nc1cc(C(F)(F)F)ccc1Cl)N/N=C\c1cc([N+](=O)[O-])ccc1O
EC50 [4]: 1.44 µM (active) | EC50 [6]: 0.675 µM (active)

C[C@H]1[C@H](C)CC[C@]2(C)CC[C@]3(C)C(=CC[C@@H]4[C@@]5(C)CC[C@@H](O)[C@](C)(C(=O)O)[C@@H]5CC[C@]43C)[C@H]12 [BOSWELLIC ACID]
EC50 [4]: 0.963 µM (active) | EC50 [6]: 0.705 µM (active)
